{"source": "paper PMC11434960", "about": "“Evaluation of [^68Ga]Ga-DOTA-AeK as a Potential Imaging Tool for PET Imaging of Cell Wall Synthesis in Bacterial Infections” (Pharmaceuticals, 2024)", "key": {"[1]": {"format": "in vivo, BALB/c mice", "details": "mouse, in vivo, iv, Ex vivo organ biodistribution", "method": "(§1) Six-to-eight-week-old mixed-gender BALB/c mice (20.0 ± 2.1 g) were utilized. Animals were pre-grouped (two mice/cage) into individually ventilated cages (IVC, Tecniplast, Buguggiate, Italy) and kept under standard housing conditions (22 ± 2 °C, 55 ± 10% humidity, 15 ± 5 Pa, and 12 h light/dark cycles) with food and water being provided ad libitum. Each experimental group consisted of 5 animals.\n(§2) A thigh muscle mouse model of infection and inflammation was developed for imaging purposes by adopting procedures from a previous study with some modifications. In brief, animals were inoculated intramuscularly (right hind leg) with 1.5 × 10^7 colony forming units (CFU)/mL of S. aureus or E. coli suspended in 100 µL of culture media. To induce sterile inflammation, the same mice received 100 µL of a turpentine oil solution intramuscularly into the left hind leg. Infection was allowed to develop for 3–5 days, which is typical for a model of chronic infections, and a health check, including monitoring of the infection and inflammation sites, was conducted. At 3 and 5 days after the inoculations, all animals underwent whole-body [^68Ga]Ga-DOTA-AeK microPET/CT imaging, and after euthanasia, a complete ex vivo organ tissue biodistribution radioactive assay was performed.\n(§3) A total volume of 100 µL of [^68Ga]Ga-DOTA-AeK (7.4 ± 2.0 MBq, 5% EtOH/PBS, pH 7.0) was administered as an intravenous bolus via the tail vein. At the same time, the animals were kept anesthetized, (4% isoflurane in oxygen for induction and 1.5–2.5% for maintenance). Non-invasive, whole-body microPET/CT imaging was performed using a Mediso nanoScan® PET/CT scanner (Budapest, Hungary). A previously described, image acquisition was performed. The PET/CT imaging procedure consisted of static whole-body scans per animal commencing at 60 min post-injection. The imaging protocol included the X-ray topogram (30 s) to ascertain the correct animal placement followed by CT image acquisition (4–5 min) and 20 min long PET image acquisition. Image reconstruction and analysis were performed as previously described.\n(§4) After PET/CT imaging, the mice were euthanized via cervical dislocation while still under anesthesia. The different organs (spleen, pancreas, stomach, intestine, kidneys, liver, heart, lung, muscle, and femur) were collected into pre-weighed tubes. The radioactivity of each sample was determined using an automatic gamma counter (Hidex AMG, Turku, Finland). Results were expressed as a percentage of injected dose per gram organ (%ID/g). Subsequently, both muscles on the left and right thighs were fixed in 4% paraformaldehyde and submitted to the University of Pretoria, Department of Paraclinical Science, for hematoxylin and eosin (H&E) and Gram staining. Infection and inflammation tissue analysis was performed by a qualified pathologist."}, "[2]": {"system": "E. coli", "format": "in vivo, BALB/c mice", "method": "as §1, §2, §3, §4"}, "[3]": {"format": "in vivo, BALB/c mice", "details": "mouse, in vivo, iv, Ex vivo organ biodistribution", "method": "as §1, §2, §3, §4", "remark": "listed apart in the source"}, "[4]": {"system": "S. aureus", "format": "in vivo, BALB/c mice", "method": "as §1, §2, §3, §4"}, "[5]": {"format": "in vitro ADME", "method": "The plasma protein binding filter assay described by Müller et al. was adopted. Before the experiment, Amicon® Ultra-0.5 centrifugal 10 kDa MWCO filter units (Merck, Darmstadt, Germany) were pre-washed with 200 µL of phosphate-buffered saline (PBS) for 20 min at 18,611 g using the Microfuge 16 centrifuge (Beckman Coulter Life Sciences, Brea, CA, USA). Subsequently, 800 µL of plasma was spiked with 200 µL of purified [^68Ga]Ga-DOTA-AeK, vortexed for 3 s, and incubated for 120 min at 37 °C. For radioanalysis, a 100 µL plasma sample was taken at different time intervals (30, 60, and 120 min), diluted (1:1) with PBS, aliquoted into filter units, and centrifuged at 14,800 rpm for 20 min. A similar procedure was carried out in PBS (140 mM NaCl, 10 mM phosphate buffer, and 3 mM KCl, pH 7.4) as a control. After centrifugation, each filter unit was washed by adding 100 µL of PBS (140 mM NaCl, 10 mM phosphate buffer, and 3 mM KCl, at pH 7.4, and centrifuged as described above. The counts of the filtrate fraction (representing unbound compound) and on the filter (protein-bound compound) were measured using a Capintec Captus 4000E well counter (Florham Park, NJ, USA). The percentage of the protein-bound radiotracer was calculated using the following equation:% Protein bound = [counts in filter ÷ total counts (filtrate fraction+ filter)] × 100(2)"}, "[6]": {"system": "E. coli", "assay": "Bacterial cell uptake of radiotracer in live and heat-killed cultures", "format": "cell-based, Escherichia coli", "details": "37 °C", "method": "(§5) Overnight bacterial cell cultures of E. coli or S. aureus were grown in Tryptic Soy Broth (TSB) medium at 37 °C. The […] McFarland standard was prepared using DEN-18 McFarland Densitometer (Biosan, Riga, Latvia). For control studies, the same amount of bacterial culture was heat-killed via 30 min incubation at 90 °C. The culture viability was confirmed using agar plating with overnight incubation. All tests were initiated by adding 4.1 ± 1.23 MBq of [^68Ga]Ga-DOTA-AeK product solution (4.86 ± 1.45 GBq/µmol) to 1.0 mL of the bacterial suspension (1.8 × 10^8 cells/mL), and mixtures were maintained while shaking at 37 °C. At specific time intervals (10, 60, and 120 min), samples of the suspension were centrifuged at 16,211 g for 10 min (Digicen 21R, United Scientific, Goodwood, South Africa), and the supernatant was transferred into a plastic tube. The pellet was washed with 3 mL of PBS (140 mM sodium chloride, 10 mM phosphate buffer, and 3 mM potassium chloride, pH 7.4) and centrifuged at 16,211 g for 10 min. […] The radioactivity in the supernatant and pellet fraction were measured using an automatic gamma counter (Hidex AMG, LabLogic, Turku, Finland). The percentile of [^68Ga]Ga-DOTA-AeK cell uptake was calculated as follows:Uptake (%) = [counts in cell pellet ÷ total counts (cell pellet + supernatants)] × 100(3)"}, "[7]": {"format": "physicochemical", "method": "The compound hydrophobicity was determined using the octanol–water partition coefficient “shake flask method” described by Lambidis et al.. In brief, 100 µL of purified [^68Ga]Ga-DOTA-AeK was added to 400 µL of ultrapure water. The aqueous solution was added to an equal volume of 1-octanol (Sigma-Aldrich, Darmstadt, Germany), and the mixture was mechanically shaken for approximately 3 min at room temperature. The sample was centrifuged at 16,211 g for 5 min using a Digicen 21 R centrifuge (Orto Alresa, Madrid, Spain). The aqueous and organic phases of the sample were separated, and samples from each phase were analyzed using a dose calibrator. The logarithmic partition coefficient, Log P, was calculated using the following formula:Log P = Log [(counts in octanol/counts in water)](1)"}, "[8]": {"system": "S. aureus", "assay": "Bacterial cell uptake of radiotracer in live and heat-killed cultures", "format": "cell-based, Staphylococcus aureus", "details": "37 °C", "method": "as §5"}}, "note": "Where two headings read alike, the source gives them in different places. Starred links: 1 amine or outer side, 2 acyl side, 3 side chain; linkers in the order of their positions; H or OH if unused. Non-standard residues stand in square brackets, D forms with d. Residues, ends and D or L forms follow the SMILES beside them. *: point of attachment. DOTA = O=C(O)CN1CCN(CC(=O)O)CCN(CC(=O)*)CCN(CC(=O)O)CC1; d(γGlu) = O=C(O)[C@@H](CCC(=O)[*:2])N[*:1]"}
{"smiles": "C[C@H](N)C(=O)N[C@H](CCC(=O)N[C@@H](CCCCNC(=O)CN1CCN(CC(=O)O)CCN(CC(=O)O)CCN(CC(=O)O)CC1)C(=O)O)C(=O)O", "note": "[[^68Ga]Ga-DOTA-AeK, metal not drawn] (H-Ala-[d(γGlu)]-Lys(DOTA)-OH)", "values": [{"measurement": "tissue uptake at 1 h", "setting": "[1]; Brain", "result": 0.1, "unit": "%ID/g"}, {"measurement": "tissue uptake at 1 h", "setting": "[1]; Heart", "result": "0.8 ± 0.4", "unit": "%ID/g"}, {"measurement": "tissue uptake at 1 h", "setting": "[1]; Inflammation", "result": 0.9, "unit": "%ID/g"}, {"measurement": "tissue uptake at 1 h", "setting": "[1]; Liver", "result": "1.1 ± 0.2", "unit": "%ID/g"}, {"measurement": "tissue uptake at 1 h", "setting": "[1]; Lungs", "result": "1 ± 0.1", "unit": "%ID/g"}, {"measurement": "tissue uptake at 1 h", "setting": "[1]; Muscle", "result": "0.7 ± 0.4", "unit": "%ID/g"}, {"measurement": "tissue uptake at 1 h", "setting": "[1]; Pancreas", "result": "0.6 ± 0.3", "unit": "%ID/g"}, {"measurement": "tissue uptake at 1 h", "setting": "[1]; Thyroid", "result": "1 ± 0.7", "unit": "%ID/g"}, {"measurement": "uptake in the infectious foci (PET/CT and ex vivo tissue counting)", "setting": "[2]; E. coli, Day 3 and Day 5 post-inoculation, 60 min after iv injection", "result": "no significant uptake in the infectious foci"}, {"measurement": "clearance route", "setting": "[2]; mouse, in vivo", "result": "rapid clearance mainly via renal excretion"}, {"measurement": "Ex vivo organ biodistribution, Brain", "setting": "[2]; mouse, in vivo, iv, 1 h", "result": "0.2 ± 0.2", "unit": "%ID/g"}, {"measurement": "Ex vivo organ biodistribution, Heart", "setting": "[2]; mouse, in vivo, iv, 1 h", "result": "1.6 ± 1.3", "unit": "%ID/g"}, {"measurement": "Ex vivo organ biodistribution, Kidneys", "setting": "[2]; mouse, in vivo, iv, 1 h", "result": "2.9 ± 0.7", "unit": "%ID/g"}, {"measurement": "Ex vivo organ biodistribution, Liver", "setting": "[2]; mouse, in vivo, iv, 1 h", "result": "1.2 ± 0.4", "unit": "%ID/g"}, {"measurement": "Ex vivo organ biodistribution, Lungs", "setting": "[2]; mouse, in vivo, iv, 1 h", "result": "2.0 ± 0.4", "unit": "%ID/g"}, {"measurement": "tissue uptake at 1 h", "setting": "[3]; Brain", "result": 0.1, "unit": "%ID/g"}, {"measurement": "tissue uptake at 1 h", "setting": "[3]; Intestines", "result": "1.2 ± 1.9", "unit": "%ID/g"}, {"measurement": "tissue uptake at 1 h", "setting": "[3]; Stomach", "result": "0.7 ± 0.5", "unit": "%ID/g"}, {"measurement": "uptake in the infectious foci (PET/CT and ex vivo tissue counting)", "setting": "[4]; S. aureus, Day 3 and Day 5 post-inoculation, 60 min after iv injection", "result": "no significant uptake in the infectious foci"}, {"measurement": "clearance route", "setting": "[4]; mouse, in vivo", "result": "rapid clearance mainly via renal excretion"}, {"measurement": "Ex vivo organ biodistribution, Adipose", "setting": "[4]; mouse, in vivo, iv, 1 h", "result": "1.9 ± 0.3", "unit": "%ID/g"}, {"measurement": "Ex vivo organ biodistribution, Brain", "setting": "[4]; mouse, in vivo, iv, 1 h", "result": "0.2 ± 0.0", "unit": "%ID/g"}, {"measurement": "Ex vivo organ biodistribution, Femur", "setting": "[4]; mouse, in vivo, iv, 1 h", "result": "2.0 ± 0.2", "unit": "%ID/g"}, {"measurement": "Ex vivo organ biodistribution, Heart", "setting": "[4]; mouse, in vivo, iv, 1 h", "result": "3.7 ± 0.5", "unit": "%ID/g"}, {"measurement": "Ex vivo organ biodistribution, Infection", "setting": "[4]; mouse, in vivo, iv, 1 h", "result": "0.9 ± 0.3", "unit": "%ID/g"}, {"measurement": "Ex vivo organ biodistribution, Intestines", "setting": "[4]; mouse, in vivo, iv, 1 h", "result": "1.8 ± 0.8", "unit": "%ID/g"}, {"measurement": "Ex vivo organ biodistribution, Kidneys", "setting": "[4]; mouse, in vivo, iv, 1 h", "result": "7.0 ± 0.1", "unit": "%ID/g"}, {"measurement": "Ex vivo organ biodistribution, Pancreas", "setting": "[4]; mouse, in vivo, iv, 1 h", "result": "2.3 ± 0.2", "unit": "%ID/g"}, {"measurement": "Ex vivo organ biodistribution, Spleen", "setting": "[4]; mouse, in vivo, iv, 1 h", "result": "1.6 ± 0.6", "unit": "%ID/g"}, {"measurement": "Ex vivo organ biodistribution, Stomach", "setting": "[4]; mouse, in vivo, iv, 1 h", "result": "1.1 ± 0.4", "unit": "%ID/g"}, {"measurement": "protein-bound fraction", "setting": "[5]", "result": "approximately 10.18 ± 6.9%"}, {"measurement": "cellular uptake, live versus heat-killed bacteria", "setting": "[6]; any time point up to 120 min", "result": "No significant increase in radioactivity above the heat-killed bacterial cells"}, {"measurement": "radiotracer detected in the medium", "setting": "[6]; up to 120 min", "result": "~ 98%"}, {"measurement": "logP", "setting": "[7]", "result": -1.08}, {"measurement": "tracer recovered within the aqueous phase", "setting": "[7]; octanol/water partition, n = 3", "result": "92.3 ± 0.04", "unit": "%"}, {"measurement": "cellular uptake, live versus heat-killed bacteria", "setting": "[8]; any time point up to 120 min", "result": "No significant increase in radioactivity above the heat-killed bacterial cells"}, {"measurement": "radiotracer detected in the medium", "setting": "[8]; up to 120 min", "result": "~ 98%"}]}
